Test results published in paper PMC4942819 (Scientific Reports, 2016).
Values after ≈ are worked out from the molar mass of the structure shown.

What follows are compounds tested on H37Rv (assay: microbe, parasite or virus in culture). Details: Mycobacterium tuberculosis, H37RV, read-out: MIC, strain H37Rv.
Assay type: cell-based, Mycobacterium tuberculosis

SMILES | MIC
NCC[C@H](O)C(=O)N[C@@H]1C[C@H](N)[C@@H](O[C@H]2O[C@H](CN)[C@@H](O)[C@H](O)[C@H]2O)[C@H](O)[C@H]1O[C@H]1O[C@H](CO)[C@@H](O)[C@H](N)[C@H]1O [AMK, amikacin] | 0.5 µg/mL (≈ 0.854 µM)
[H]/N=C(/N)N[C@H]1[C@H](O)[C@@H](O)[C@H](O[C@@H]2O[C@@H](C)[C@](O)(C=O)[C@H]2O[C@@H]2O[C@@H](CO)[C@H](O)[C@@H](O)[C@@H]2NC)[C@@H](N/C(N)=N\[H])[C@@H]1O [SM, streptomycin] | 1 µg/mL (≈ 1.72 µM)
CC1COc2c(N3CCN(C)CC3)c(F)cc3c(=O)c(C(=O)O)cn1c23 (stereo not shown) [OFLX, ofloxacin] | 0.5 µg/mL (≈ 1.38 µM)
O=[N+]([O-])c1cc(C(F)(F)F)cc2c(=S)nc(N3CCC4(CC3)OCCO4)sc12 [SKLB-TB1001, 8-nitro-2-(1,4-dioxa-8-azaspiro[4.5]decan-8-yl)-6-(trifluoromethyl)-4H-benzo[e][1,3]thiazine-4-thione] | < 0.0156 µg/mL
COc1c(N2C[C@@H]3CCCN[C@@H]3C2)c(F)cc2c(=O)c(C(=O)O)cn(C3CC3)c12 [MOX, moxifloxacin] | 0.06 µg/mL (≈ 0.149 µM)
CO[C@H]1/C=C/O[C@@]2(C)Oc3c(C)c(O)c4c(O)c(c(/C=N/N5CCN(C)CC5)c(O)c4c3C2=O)NC(=O)/C(C)=C\C=C\[C@H](C)[C@H](O)[C@@H](C)[C@@H](O)[C@@H](C)[C@H](OC(C)=O)[C@@H]1C [RMP, rifampicin] | < 0.03 µg/mL
CC[C@@H](CO)NCCN[C@@H](CC)CO [EMB, ethambutol] | 1 µg/mL (≈ 4.89 µM)
NNC(=O)c1ccncc1 [INH, isoniazid] | 0.03 µg/mL (≈ 0.219 µM)

Same assay, conditions: Table 2 prints no unit; test range in method b43 in μg/mL

SMILES | MIC, strain H37Rv
NC[C@H]1O[C@H](O[C@H]2[C@H](O)[C@@H](O[C@H]3O[C@H](CO)[C@@H](O)[C@H](N)[C@H]3O)[C@H](N)C[C@@H]2N)[C@H](O)[C@@H](O)[C@@H]1O [KM, kanamycin] | 1 µg/mL (≈ 2.06 µM)
C[C@H]1COc2c(N3CCN(C)CC3)c(F)cc3c(=O)c(C(=O)O)cn1c23 [LVFX, levo-ofloxacin] | 0.25 µg/mL (≈ 0.692 µM)
